Nine compounds from patent publication US10717753B2, “Deuterium-modified brigatinib derivatives, pharmaceutical compositions comprising same, and use thereof” (Chia Tai Tianqing Pharmaceutical Group Co., Ltd., priority 2015, dated 2020) can be followed below.

The subject of series [1] is human lung cancer cell NCI-H3122. Briefly: Inhibition of proliferation in vitro, SRB method. Particulars: NCI-H3122 cells expressing EML4-ALK fusion protein, 72 hours, mean±standard deviation. The class given is cell-based. As to the method:
1.1 Cells: human lung cancer cell line NCl—H3122, expressing EML4-ALK fusion protein.
1.2 Main reagents: sulfonyl rhodamine B, RPMI-1640 liquid medium, dimethyl sulfoxide (DMSO), trichloromethane (chloroform).
1.3 Instruments: Varioskan Flash microplate reader.
1.4 Solution preparation: an appropriate amount of a series of test compounds was taken and dissolved using 5% chloroform+95% DMSO, to form a stock solution of 20 mM, which was stored at −20° C. in aliquots. The positive drug Crizotinib was taken and dissolved using 5% chloroform+95% DMSO, and the stock solution was diluted with fresh medium to a working concentration before use. 95 μl DMSO and 5 μl chloroform were taken, mixed together, and diluted with fresh medium to a working concentration before use.
The tumor cell line used in tests was cultured in RPM11640 medium containing 10% inactivated Hyclone serum or fetal bovine serum, 100 IU/mL penicillin and 100 IU/mL streptomycin, in a 5% CO2 incubator at 37° C. NCl—H3122 cells were inoculated into a 96-well plate at 5000/well. It was ensured that the cells were in logarithmic growth phase during the whole test.
Groups of series of test compounds, negative control and Crizotinib (positive control) were set up in this test. For each test compound group, 6 concentration gradients by 3-fold serial dilution were set, and three wells were for each concentration. For positive control group, 6 concentration gradients by 3-fold serial dilution were set, and three wells were for each concentration. Negative control was 5% chloroform+95% DMSO (the same concentration as that of test compound at 100 nM), and 6 wells were set.
After the cells were treated with the drugs for 72 hours, the culture medium was discarded. A pre-chilled 10% trichloroacetic acid (TCA) solution was added into each well to fix the cells and the plate was placed in a refrigerator at 4° C. to fix. Each well of the plate was washed with deionized water for 5 times to remove trichloroacetic acid solution. After being dried in air, each well was added with SRB solution (4 mg/ml) prepared with 1% acetic acid and then kept for 20 minutes at room temperature. After the liquid was discarded, each well was washed with 1% acetic acid for 5 times to remove uncombined SRB dye, and then dried in air. An appropriate volume of 10 mM Tris-base (trimethylolamine methane) solution at pH 10.5 was added into each well to dissolve the cells. The plate was shaken on a plate shaker for 10 minutes. The absorbance (OD) value was measured at a wavelength of 490 nm in a microplate reader.
According to the OD values measured by microplate reader, an inhibition rate was calculated as the following formula: Survival rate (%)=OD of drug well/OD of control well×100%,
If the survival rate was ≥100%, it was recorded as 100%.
Using Calcusyn software, IC50 was calculated, and mean and standard deviation thereof were calculated, and the data was expressed as: mean±standard deviation.
On the technique in general: The SRB assay estimates cell density from bound dye.

Series [2] can be described thus: Stability in monkey liver microsomes in vitro. It is filed as in vitro ADME. Conditions: for half-life at 0.01 μmol/L: monkey liver microsomes 0.5 mg/mL protein, NADPH, 37° C., 1 μmol/L test compound; for half-life period compared to the original drug Brigatinib: monkey liver microsomes, statement in words; for Prolonging rates: prolongation of t1/2 in monkey liver microsomes versus Brigatinib. As to the method:
300 μL of a final incubation system contains 30 μL of monkey liver microsomes (protein concentration: 0.5 mg/mL, American BD Company), 30 μL of NADPH+MgCl2, 3 μL of a substrate (a solution of 1 μmol/L test compound in acetonitrile) and 237 μL of PBS buffer solution. The above incubation system was made in duplicate, each of 0.3 mL.
For each sample, an evenly mixed solution of the substrate and enzyme with a total volume of 270 μL was first prepared, and after pre-incubation at 37° C. for 5 min, 30 μL of NADPH+MgCl2 was added and mixed. 40 μL of the reaction solution was taken respectively at 0, 15, 30, 60 and 90 min, and the reaction was stopped by 300 μL of ice-cold acetonitrile containing an internal standard. In addition, three blanks (KB) were set, each of 300 μL (KB1: no NADPH; KB2: no substrate; KB3: no enzyme).
40 μL of the incubation sample was pipetted out, added with 400 μL of ice-cold acetonitrile containing an internal standard, vortexed for 5 min and centrifuged (13000 rpm, 4° C.) for 10 min. 80 μL of the supernatant was pipetted out in a loading plate, and then 80 μL of 50% acetonitrile aqueous solution was added to the plate and mixed. 1 μL of the mixture was pipetted out for LC/MS/MS assay and the chromatogram was recorded.
(Liver microsomes are a subcellular fraction often used to study metabolism.)

By IC50 is commonly meant the concentration that inhibits the measured activity by half. In series [1], `C[C@@H](Oc1cc(-c2cnn(C3CCNCC3)c2)cnc1N)c1c(Cl)ccc(F)c1Cl` [Crizotinib, reference compound] showed an IC50 of 11.1 ± 0.69 nM.

What is called half-life is how long it takes for the measured level to halve. In the case of `[2H]C1([2H])N(C)C([2H])([2H])C([2H])([2H])N(C2CCN(c3ccc(Nc4ncc(Cl)c(Nc5ccccc5P(C)(C)=O)n4)c(OC)c3)CC2)C1([2H])[2H]` [Compound I-6, (2-((5-chloro-2-((2-methoxy-4-(4-(4-methyl[D8]piperazin-1-yl)piperidin-1-yl)phenyl)amino)pyrimidin-4-yl)amino)phenyl)dimethyl phosphorus oxide], in series [2], the half-life at 0.01 μmol/L was found to be 223 min, the “half-life period compared to the original drug Brigatinib” value is “significantly prolong the half-life period” and the Prolonging rates is on record as 31%. In addition, inhibition in series [1] was half-maximal at 9.99 ± 2.31 nM (IC50).

For `[2H]C([2H])([2H])Oc1cc(N2CCC(N3CCN(C)CC3)CC2)ccc1Nc1ncc(Cl)c(Nc2ccccc2P(C)(C)=O)n1` [Compound I-1, (2-((5-chloro-2-((2-[D3]methoxy-4-(4-(4-methylpiperazin-1-yl)piperidin-1-yl)phenyl)amino)pyrimidin-4-yl)amino)phenyl)dimethyl phosphorus oxide], in series [2], the half-life at 0.01 μmol/L came to 229 min, the “half-life period compared to the original drug Brigatinib” value is on record as “significantly prolong the half-life period” and the Prolonging rates was 35%. Half-maximal inhibition in series [1] (IC50) required 10 ± 1.05 nM.

For the compound `[2H]C([2H])([2H])N1C([2H])([2H])CN(C2CCN(c3ccc(Nc4ncc(Cl)c(Nc5ccccc5P(C)(C)=O)n4)c(OC)c3)CC2)CC1([2H])[2H]` [Compound I-7], in series [2], the half-life at 0.01 μmol/L worked out at 227 min, the “half-life period compared to the original drug Brigatinib” value is listed as “significantly prolong the half-life period” and the Prolonging rates is 34%. Also, the IC50 in series [1] was 9.89 ± 0.76 nM.

Regarding `[2H]C1([2H])CN(C2CCN(c3ccc(Nc4ncc(Cl)c(Nc5ccccc5P(C)(C)=O)n4)c(OC)c3)CC2)CC([2H])([2H])N1C` [Compound I-9, (2-((5-chloro-2-((2-methoxy-4-(4-(4-methyl[3,3,5,5-D4]piperazin-1-yl)piperidin-1-yl)phenyl)amino)pyrimidin-4-yl)amino)phenyl)dimethyl phosphorus oxide], in series [2], the half-life at 0.01 μmol/L is 214 min and the Prolonging rates is recorded as 26%. Also, the IC50 in series [1] came to 7.65 ± 1.07 nM.

Regarding `[2H]C([2H])([2H])Oc1cc(N2CCC(N3CCN(C([2H])([2H])[2H])CC3)CC2)ccc1Nc1ncc(Cl)c(Nc2ccccc2P(C)(C)=O)n1` [Compound I-3, (2-((5-chloro-2-((2-[D3]methoxy-4-(4-(4-[D3]methylpiperazin-1-yl)piperidin-1-yl)phenyl)amino)pyrimidin-4-yl)amino)phenyl)dimethyl phosphorus oxide], in series [2], the half-life at 0.01 μmol/L was determined as 199 min and the Prolonging rates stood at 17%. Also, inhibition in series [1] was half-maximal at 12.7 ± 2.37 nM (IC50).

As to `[2H]C1([2H])CN(C)CC([2H])([2H])N1C1CCN(c2ccc(Nc3ncc(Cl)c(Nc4ccccc4P(C)(C)=O)n3)c(OC)c2)CC1` [Compound I-4, (2-((5-chloro-2-((2-methoxy-4-(4-(4-methyl[2,2,6,6-D4]piperazin-1-yl)piperidine-1-yl)phenyl)amino)pyrimidin-4-yl)amino)phenyl)dimethyl phosphorus oxide], in series [2], the half-life at 0.01 μmol/L worked out at 176 min and the Prolonging rates came to 4%. This compound registered an IC50 in series [1] of 11.1 ± 2.07 nM.

With `COc1cc(N2CCC(N3CCN(C)CC3)CC2)ccc1Nc1ncc(Cl)c(Nc2ccccc2P(C)(C)=O)n1` [Brigatinib, 5-chloro-N^4-[2-(dimethylphosphonyl)phenyl]-N^2-{2-methoxy-4-[4-(4-methylpiperazin-1-yl)piperidin-1-yl]phenyl}pyrimidine-2,4-diamine], the half-life at 0.01 μmol/L in series [2] amounted to 170 min. Moreover, inhibition in series [1] was half-maximal at 13.3 ± 1.6 nM (IC50).

As for `[2H]C([2H])([2H])N1CCN(C2CCN(c3ccc(Nc4ncc(Cl)c(Nc5ccccc5P(C)(C)=O)n4)c(OC)c3)CC2)CC1` [Compound I-2, (2-((5-chloro-2-((2-methoxy-4-(4-(4-[D3]methylpiperazin-1-yl)piperidin-1-yl)phenyl)amino)pyrimidin-4-yl)amino)phenyl)dimethyl phosphorus oxide], in series [2], the half-life at 0.01 μmol/L came out at 236 min, the “half-life period compared to the original drug Brigatinib” value is listed as “significantly prolong the half-life period” and the Prolonging rates was 39%. The compound also returned an IC50 in series [1] of 9.45 ± 1.79 nM.
